In US8426568B2 (University of Virginia Patent Foundation, priority 2006, dated 2013):
pEC50, pIC50: −log10 of the molar value. Converted amounts (≈) assume the structure as drawn. Where two headings read alike, the source gives them in different places.

What was measured:
[1] = biological target: recombinant, constitutively active RSK2 (Homo sapiens, UniProt P51812); experiment: in vitro RSK kinase assay; format: biochemical; settings: 10 μM ATP, 30 min, read-out: IC50 for inhibition of RSK catalytic activity in vitro
MCF-7 cells [2] = experiment: MCF-7 cell proliferation (CellTiter-Glo); format: cell-based, human; settings: for inhibition of MCF-7 cell proliferation at 50 μM: 72 h
Description: (2A) The potency of purified compounds in inhibiting RSK catalytic activity in vitro was measured. Kinase assays were performed using immobilized substrate. The reactions were initiated by the addition of 10 μM ATP (final concentration). Reactions were terminated after 30 min. All assays measured the initial reaction velocity. The extent of phosphorylation was determined using phosphospecific antibodies in combination with HRP-conjugated secondary antibodies. HRP activity was measured as described in the Experimental. Maximum and minimum activity is the relative luminescence detected in the presence of vehicle and 200 mM EDTA, respectively. Points, mean (n=2 in triplicate); bars=SD. (2B) The potency of purified compounds as inhibitors of MCF-7 cell proliferation was determined. […] Values given are the fold proliferation. Points, mean (n=3 in quadruplicate); bars=SD.
(§1) The cell number was measured after 48 h of treatment. Values given are the fold proliferation as a percentage of that observed with vehicle-treated cells. Points, mean (n=2 in quadruplicate); bars=SD.
(§2) For proliferation studies cells were seeded at 5000 cells per well in 96 well tissue culture plates in the appropriate medium as described by American Type Culture Collection. After 24 hours, the medium was replaced with medium containing compound or vehicle as indicated. Cell viability was measured at indicated time points using CellTiter-Glo™ assay reagent (Promega, Madison, Wis.) according to manufacturer's protocol. Maximum responses and the concentrations of half the effective response (EC50) were determined by performing a best-fit analysis of the data (GraphPad Prism). For specificity studies, cells were seeded at 3×10^5 cells/well in 6 well plates. After 24 hours, the cells were serum-starved for 24 hours then incubated with compound or vehicle for 4 hours prior to a 20 minute treatment with PDB. Cells were lysed with boiling SDS-sample buffer without dithiothreitol (DTT). The lysates were normalized for total protein, and DTT was added to an aliquot, which was electrophoresed and immunoblotted. Antibodies used on cell lysates included anti-pan-MAPK (anti-ERK1/2) (610124) from BD Transduction Laboratories; anti-phospho-MAPK (V8031) from Promega; anti-eEF2 (2332), anti-phospho-eEF2 (2331), anti-phospho-Akt Substrate (9611), anti-phospho-PKA Substrate (9621), and anti-phospho-PKC Substrate (2261) from Cell Signaling Technology. Anti-Ran was a generous gift from Ian Macara (University of Virginia).

PKA, PKC and AKT = experiment: phosphorylation patterns in MCF-7 cells with phospho-PKA, -PKC, -AKT substrate antibodies (specificity); format: cell-based, human; settings: pre-incubation before PDB
Description: MCF-7 cell lysates normalized for protein concentration were electrophoresed, transferred and immunoblotted with anti-phospho-PKA substrate, anti-phospho-PKC substrate or anti-phospho-AKT substrate.
as §2
The lysates were immunoblotted with multiple phospho-specific substrate antibodies.

MCF-10A cells [3] = settings: background; cited from earlier work
MAPK = experiment: PDB-stimulated MAPK activation in MCF-7 cells (anti-active MAPK immunoblot); format: cell-based, human; settings: serum-deprived MCF-7; 4 h pre-incubation; 500 nM PDB 20 min
Description: (3A) The potency of the synthesized compounds in inhibiting RSK catalytic activity in vitro was measured as described in FIG. 2A and is graphically illustrated. (3B) Represents an images of immunoblots where serum-deprived MCF-7 cells were pre-incubated with vehicle, or the indicated concentration of inhibitor for 4 h. Cells were treated with 500 nM PDB or vehicle for 20 min prior to lysis. Protein concentration of lysates was measured and lysates were electrophoresed, transferred and immunoblotted.
(§3) For proliferation studies cells were seeded at 5000 cells per well in 96 well tissue culture plates in the appropriate medium as described by American Type Culture Collection. After 24 hours, the medium was replaced with medium containing compound or vehicle as indicated. Cell viability was measured at indicated time points using CellTiter-Glo™ assay reagent (Promega, Madison, Wis.) according to manufacturer's protocol. Maximum responses and the concentrations of half the effective response (EC50) were determined by performing a best-fit analysis of the data (GraphPad Prism). For specificity studies, cells were seeded at 3×10^5 cells/well in 6 well plates. After 24 hours, the cells were serum-starved for 24 hours then incubated with compound or vehicle for 4 hours prior to a 20 minute treatment with PDB. Cells were lysed with boiling SDS-sample buffer without dithiothreitol (DTT). […]

MCF-7 cells [4] = settings: cited from earlier work
RSK = experiment: eEF2 phosphorylation in PDB-stimulated MCF-7 cells (RSK activity in intact cells); format: cell-based, human; settings: serum-deprived MCF-7; 4 h pre-incubation; 500 nM PDB 20 min
Description: Therefore, the phosphorylation state of eEF2 during mitogenic stimulation is an indicator of RSK activity.

MCF-10A cells [5] = experiment: MCF-10A cell proliferation (CellTiter-Glo); format: cell-based, human; settings: 48 h treatment
Description: as §1
as §3, with “(DTT). The lysates were normalized for total protein, and DTT was added to an aliquot, which was electrophoresed and immunoblotted.” for “(DTT).”

[6] = maximum solubility in tissue culture media; format: physicochemical; settings: aqueous buffer
[7] = calculated LogP (Molinspiration Property Calculation Service); settings: relative to SL0101, from calculated LogP
Description: Reagents and solvents were reagent grade and used without further purification. Methylene chloride was distilled from calcium hydride. Anhydrous grade THF was purchased from VWR. All reactions involving air or moisture sensitive reagents or intermediates were performed under a nitrogen or argon atmosphere. Flash chromatography was performed using Silicycle 40-60 mesh silica gel. Analytical TLC was performed using 0.25 mm EM silica gel 60 […] plates that were visualized by irradiation (254 nm) or by staining with Hanessian's stain (cerium molybdate). Optical rotations were obtained using a Jasco digital polarimeter. ^1H and ^13C NMR spectra were obtained using 300 MHz and 500 MHz Varian instruments. Chemical shifts are reported in parts per million (ppm δ) referenced to the residual ^1H resonance of the solvent (CDCl3, 7.26 ppm; DMSO-d6, 2.49 ppm). ^13C spectra were referenced to the residual ^13C resonance of the solvent (CDCl3, 77.3 ppm; DMSO-d6, 39.5 ppm). Splitting patterns are designated as follows: s, singlet; br, broad; d, doublet; dd, doublet of doublets; t, triplet; q, quartet; m, multiplet. High resolution mass spectra were obtained at the Michigan State University-NIH Mass Spectrometry Facility. LogP values were calculated using Molinspiration Property Calculation Service (see their website).

[8] = compounds purified from F. refracta

Chain of recombinant, constitutively active RSK2 (P51812 1-397 limits assumed): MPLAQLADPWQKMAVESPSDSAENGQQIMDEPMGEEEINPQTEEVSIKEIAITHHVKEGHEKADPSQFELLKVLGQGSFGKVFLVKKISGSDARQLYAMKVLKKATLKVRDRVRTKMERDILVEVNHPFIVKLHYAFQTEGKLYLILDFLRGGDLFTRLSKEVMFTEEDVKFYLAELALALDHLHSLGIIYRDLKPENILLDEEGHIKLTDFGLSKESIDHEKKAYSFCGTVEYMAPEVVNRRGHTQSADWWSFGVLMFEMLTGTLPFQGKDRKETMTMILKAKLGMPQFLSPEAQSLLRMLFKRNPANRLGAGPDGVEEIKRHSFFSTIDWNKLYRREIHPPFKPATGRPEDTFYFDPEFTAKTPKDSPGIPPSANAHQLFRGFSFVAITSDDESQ

Row | SMILES | pIC50 [1, 8] | inhibition of MCF-7 cell proliferation at 50 μM (MCF-7 cells [2]) | effect on phosphorylation patterns (phospho-PKA, -PKC, -AKT substrate antibodies) (PKA, PKC and AKT) | specificity for RSK in intact cells (PKA, PKC and AKT) | effect on PDB-induced MAPK activation / upstream kinases (MEK, Raf, PKC) (MAPK) | effect on eEF2 phosphorylation after PDB (RSK) | other results
1 | CC(=O)OC1C(C)OC(Oc2c(-c3ccc(O)cc3)oc3cc(O)cc(O)c3c2=O)C(O)C1OC(C)=O [SL0101, kaempferol 3-O-(3″,4″-di-O-acetyl-α-L-rhamnopyranoside), reference compound] |  | similarly effective at inhibiting MCF-7 cell growth | similar | demonstrates specificity for RSK in intact cells | do not inhibit upstream kinases necessary for PDB-induced MAPK activation | eliminated PDB-mediated inactivation of eEF2K | growth of the normal human breast line MCF-10A (MCF-10A cells [3]): does not prevent the growth; proliferation of the human breast cancer cell line MCF-7 (MCF-7 cells [4]; background): inhibits proliferation; pEC50 (MCF-7 cells [4]; previously reported (ref 4), current results in agreement, read-out: EC50 for inhibition of MCF-7 cell proliferation): ~4.30
2 | N#CC(=C(/N)Sc1ccccc1N)/C(C#N)=C(\N)Sc1ccccc1N [U0126, reference compound] |  |  | PDB-induced phosphorylation is inhibited |  |  | levels of eEF2 phosphorylation also remained increased | 
3 | CCCC(=O)O[C@@H]1[C@@H](OC(=O)CCC)[C@@H](O)[C@H](Oc2c(-c3ccc(O)cc3)oc3cc(O)cc(O)c3c2=O)O[C@H]1C [Bu-SL0101, kaempferol 3-O-(3″,4″-di-O-butyryl-α-L-rhamnopyranoside)] |  |  | decreased the PDB-induced phosphorylation of a ˜25 kDa protein | not specific for inhibition of RSK activity | do not inhibit upstream kinases necessary for PDB-induced MAPK activation |  | concentration at which significant inhibition of MCF-10A proliferation began (MCF-10A cells [5]): 100 µM; solubility [6]: ~100 µM (≈ 57.3 µg/mL); pIC50 ([1]; synthesized compounds): 6.67; pEC50 (MCF-7 cells [2]; Homo sapiens, MCF7, 48 h treatment, read-out: EC50 for inhibition of MCF-7 proliferation): 4.40; increase in hydrophobicity [7]: > 50 fold

More lines, main results first:

Row | pIC50 [1, 8] | SMILES | inhibition of MCF-7 cell proliferation at 50 μM (MCF-7 cells [2]) | effect on phosphorylation patterns (phospho-PKA, -PKC, -AKT substrate antibodies) (PKA, PKC and AKT) | specificity for RSK in intact cells (PKA, PKC and AKT) | effect on PDB-induced MAPK activation / upstream kinases (MEK, Raf, PKC) (MAPK) | effect on eEF2 phosphorylation after PDB (RSK) | other results
4 | ~6.59 | CC(=O)OC1C(C)OC(Oc2c(-c3ccc(O)cc3)oc3cc(O)cc(O)c3c2=O)C(OC(C)=O)C1O [2″,4″-di-O-acetyl-SL0101, kaempferol 3-O-(2″,4″-di-O-acetyl-α-L-rhamnopyranoside)] | similarly effective at inhibiting MCF-7 cell growth |  |  |  |  | 
5 | ~6.85 | CC(=O)OC1C(C)OC(Oc2c(-c3ccc(O)cc3)oc3cc(O)cc(O)c3c2=O)C(O)C1O [4″-mono-O-acetyl-SL0101, kaempferol 3-O-(4″-mono-O-acetyl-α-L-rhamnopyranoside)] | did not inhibit MCF-7 cell proliferation |  |  |  |  | 
